Measurements taken from patent US5273991A, “Imidazole-containing compositions and methods of use thereof analogs of distamycin” (Research Corporation Technologies, Inc., priority 1992, dated 1993).

Legend:
[1] = target: poly(dGdC); test: ethidium displacement assay, poly(dGdC); assay type: binding; conditions: poly(dGdC); ± 0.02 × 10^5 M^-1; pH 7.4
Text: The ethidium displacement assay is based on the fact that ethidium binding to DNA causes a large (approximately 25 fold) florescence enhancement as a result of the hydrophobic environment surrounding the ethidium molecule. Displacement of ethidium results in decreased fluorescence, and thus binding constants of drugs to DNA can be estimated and compared by measuring the loss of fluorescence as a function of added drug. The drug concentration which produces 50% inhibition of florescence is approximately inversely proportional to the apparent binding constant.
The relative DNA binding constants (Kapp) of distamycin and Compounds 6-10 to calf thymus DNA, T4 coliphage DNA, poly(dAdT) and poly(dGdC) were determined using the ethidium displacement assay (Morgan et al., 1979). The Kapp of ethidium bromide (Debart et al., 1989) is included for comparison. 25 μL of a 2A260 DNA solution was added to 2 mL of ethidium bromide buffer (250 μL of 1.3 mM ethidium bromidestock, 314.9 mg Tris-HCl, 60.8 mg Tris base and 930/mg of Na2 EDTA.2H2 O in 250 ml H2 O) pH 7.4 and the maximum fluorescence was measured (excitation wavelength=546 nm, emission wavelength=600 nm) at ambient temperature.
DNA solutions of 2A260 were prepared as follows: T4 coliphage DNA: 10 units of DNA were dissolved in 1 mL of 10 mM sodium phosphate (pH 7.1) and 0.25 mM EDTA buffer to give a 10A260 solution. 0.3 mL of the stock solution were diluted to 1.5 mL with 10 mM sodium phosphate (pH 7.1) and 0.25 mM EDTA buffer to give a 2A260 solution. Calf thymus DNA: 100 units of DNA were dissolved in 5 mL of 10 mM sodium phosphate (pH 7.1) and 0.25 mM EDTA buffer to give a 20A260 solution. 1.5 mL of the stock solution were diluted to 15 mL with 10 mM sodium phosphate (pH 7.1) and 0.25 mM EDTA buffer to give a 2A260 solution. Poly(dA-dT) and Poly(dG-dC) DNA: 100 units of DNA were dissolved in 10 mL of 10 mM sodium phosphate pH 7.1) and 0.25 mM EDTA buffer to give a 10A260 solution. 3 mL of the stock solution were diluted to 15 mL with 10 mM sodium phosphate (pH 7.1) and 0.25 mM EDTA buffer to give a 2A260 solution.
Aliquots of 10 mM stock drug solution (1 mg of drug to be tested was dissolved with 1 mole equivalent of 0.1M HCl, and then diluted with appropriate volume of distilled water to make a 10 mM solution) were then added to the fluorescing solution and the florescence measured after each addition until a 50% reduction of fluorescence occurred. If the 10 mM stock solution lowered the % fluorescence too quickly, the stock solution was further diluted to 1 mM prior to titration. The apparent binding constant was then calculated from this equation: KEtBr [EtBr]=Kapp [drug], where [drug]=the concentration of drug at a 50% reduction of fluorescence and KEtBr [1×10^7 M^-1 for calf thymus and coliphage T4 DNA^18, 9.5×10^6 M^-1 for poly(dA.dT)^30, and 9.9×10^6 M^-1 for poly(dG.dC)^30 ] and [EtBr] were known. The concentration of ethidium bromide was 1.3 μM. The Kapp values are shown in Table I. In a separate experiment, the Kapp of Compound 5 for calf thymus DNA and poly[dGdC] were determined to be 0.3×10^5 M^-1 and 2.6×10^5 M^-1, respectively. The error in these measurements is ±[…].

[2] = tested on: calf thymus DNA; test: circular dichroism (CD) titration, calf thymus DNA; assay type: binding; conditions: for isobestic point: calf thymus DNA; for binding site size: from saturation point r'~0.25; for saturation point r': moles of drug to moles of DNA base pairs
Description: The DNA binding properties of the present compounds were assessed by circular dichroism (CD) titration experiments. Methods for CD titration can be found, for example, in Zimmer et al. (1986) Prog. Biophys. Molec. Biol 47, 31. The conformation of DNA can be readily determined by CD experiments, and for B-DNA, characteristic positive and negative Cotton effects are observed at 260 and 245 nm, respectively.
The interaction of Compounds 6-10 to a number of DNAs [calf thymus, poly(dA dT) and poly(dG dC)] were analyzed by CD titration studies. All the CD titration experiments were performed using identical procedures, concentrations of DNA, and increments of drug:DNA ratios (or `r`, i.e. moles of drug to moles of DNA base pairs). Therefore, the differences observed in the CD spectra for the titration of each of the compounds to the polydeoxynucleotides may be directly compared to reflect their DNA binding properties.
All experiments were performed with a continuous flow of nitrogen purging the polarimeter. A 1 mm path length jacketed cell was used and all experiments were done at room temperature. Initially, DNA [0.02 μ moles (base pairs), 130 μL] was placed in the cell and the spectrum of the DNA alone was collected. Aliquots of drug were added and the spectra collected. The drug solutions were 1 mM and amounts of the drug added correspond to a drug to base pair ratio of 0.05, 0.10, 0.15, 0.20, 0.25, 0.30, 0.40, 0.50, 0.60, 0.80, 1.00. The scan parameters were set and standard for all experiments. The spectra were collected from 400 nm to 200 nm. The sensitivity was set at 1 mdeg and the scan speed was set at 20 nm per minute. Three scans were accumulated and automatically averaged by the computer. The λmax and ellipticity (mdeg) for each spectrum were collected from the raw scans and the final plots were smoothed by the noise reduction program on the computer. […] The induced CD band is presumably due to the uv absorption π to π^* transition of the drug in the drug:DNA complex. […] Therefore interaction of these drugs with DNA causes only minor conformational changes in the double helix.

[3] = tested on: VO-31; test: NCI cytotoxicity screen (SRB); assay type: cell-based, human
Description: Compounds 6, 7, 9 and 10 were tested for cytotoxic properties by the National Cancer Institute, Bethesda, Md. The anticancer drug screen utilized a panel of 60 human tumor cell lines organized into subpanels representing leukemia, melanoma, and cancers of the lung, colon, kidney, ovary and central nervous system and is described by Monks et al. (1991) Journal of the National Cancer Institute 83, 757, which is incorporated herein by reference.
Cell lines were inoculated onto microtiter plates and preincubated for 24-28 hours. 100 μL aliquots of each compound were added to the appropriate microtiter plate wells in each of five 10-fold dilutions starting from a maximum concentration of 10^-4 M in water or DMSO. Cultures were then incubated for an additional 48 hours. Cells were then fixed in situ, followed by staining with sulforhodamine B (SRB), which binds to basic amino acids of cellular macromolecules. The solubilized stain was measured spectrophotometrically to determine relative cell growth or viability in treated and untreated cells. The monoimidazole analogs of Compounds 6, 7, 9 and 10 and the formamido analog corresponding to Compounds 7 and 10 are devoid of activity against the panel of cancer cell lines in Table III.

Row | Structure (SMILES) | Association constant Kapp [1] | negative CD band, ellipticity ([2]; 310 nm, r'=0.2, low drug concentration) | negative CD band, ellipticity ([2]; 315 nm, r'>0.4, higher drug concentrations) | weak positive CD band, ellipticity ([2]; 340 nm, r'=0.2, low drug concentration) | isobestic point [2] | binding site size [2] | saturation point r' [2] | positive CD band at 340 nm, in words ([2]; r'>0.4, higher drug concentrations) | IC50 ([3]; 48 h, Renal Cancer VO-31) | IC50 ([3]; VO-31, subsequent test date) | weak negative CD band, ellipticity ([2]; 335 nm, r'=0.2)
1 | CN(C)CCNC(=O)c1nc(NC(=O)c2nc(NC(=O)c3ccc(N(CCCl)CCCl)cc3)cn2C)cn1C [Compound 6, N-(N',N'-dimethylaminoethyl)-1-methyl-4-{4-[4,4-bis(2-chloroethyl)aminobenzamido]-1-methylimidazole-2-carboxamido}imidazole-2-carboxamide] | 455000 M⁻¹ | 0.2 mdeg | ~ 3 mdeg | 0.8 mdeg | 320 nm | about four | ~ 0.25 | disappeared | 59.2 µM | 57.9 µM | 
2 | CN(C)CCNC(=O)c1nc(NC(=O)c2nc(NC(=O)c3nc(NC(=O)c4ccc(N(CCCl)CCCl)cc4)cn3C)cn2C)cn1C [Compound 7, N-(N',N'-dimethylaminoethyl)-1-methyl-4-{1-methyl-4-[4-(4,4-bis-(2-chloroethyl)aminobenzamido)-1-methylimidazole-2-carboxamido]imidazole-2-carboxamido}imidazole-2-carboxamide] | 495000 M⁻¹ |  |  |  | 300 nm | four | ~ 0.25 |  | > 100 µM | 96.6 µM | 0.5 mdeg
3 | CN(C)CCNC(=O)c1nc(NC(=O)c2nc(NC(=O)c3nc(NCc4ccc(N(CCCl)CCCl)cc4)cn3C)cn2C)cn1C [Compound 8, N-(N',N'-dimethylaminoethyl)-1-methyl-4-{1-methyl-4-[4-(4,4-bis-(2-chloroethyl)aminobenzylamino)-1-methylimidazole-2-carboxamido]imidazole-2-carboxamido}imidazole-2-carboxamide] | 339000 M⁻¹ |  |  |  |  |  |  |  |  |  | 
4 | CN(C)CCNC(=O)c1nc(NC(=O)c2nc(NC(=O)CCCc3ccc(N(CCCl)CCCl)cc3)cn2C)cn1C [Compound 9, N-(N',N'-dimethylaminoethyl)-1-methyl-4-{4-[4,4-bis(2-chloroethyl)aminophenyl-1-butanamido]-1-methylimidazole-2-carboxamido}imidazole-2-carboxamide] | 76000 M⁻¹ |  |  |  |  |  |  |  |  |  | 
5 | CN(C)CCNC(=O)c1nc(NC(=O)c2nc(NC(=O)c3nc(NC(=O)CCCc4ccc(N(CCCl)CCCl)cc4)cn3C)cn2C)cn1C [Compound 10, N-(N',N'-dimethylaminoethyl)-1-methyl-4-{1-methyl-4-[4-(4,4-bis(2-chloroethyl)aminophenyl-1-butanamido)-1-methylimidazole-2-carboxamido]imidazole-2-carboxamido}imidazole-2-carboxamide] | 16000 M⁻¹ |  |  |  |  |  |  |  |  |  | 
